Experimental data reported in US6248712A, “Urokinase-type plasminogen activator receptor” (Cancerforskningsfondet af 1989, priority 1995, dated 2001).

Columns and labels:
U937 cells = test: Fate of receptor-bound u-PA:PAI-1 complex on U937 cells; format: cell-based, human; settings: 0.5 mM chloroquine
Description: Binding assay. […] The cells were then acid-treated in 50 mM glycine-HCl, 100 mM NaCl (pH 3) for 3 minutes at 4° C. and quickly neutralized with half a volume of 0.5 M Hepes, 100 mM NaCl (pH 7.4). […] Non-specific binding was determined in the presence of 100 nM unlabelled u-PA.
The basic experiment was carried out in two steps: first, labelled ligands were incubated with acid-washed cells at 4° C. for 90 minutes (step 1). […] In step 2, the cells were incubated at 37° C. for 3 hours in binding buffer containing no ligands. The amount and the state of the ligand were assayed by quantitation of the radioactivity (and the extent of TCA precipitability) at different times during step 2. To this end, both the radioactivity recovered in the cell-associated form and in the supernatant were measured.

HT-1080 cells [1] = test: Formation of bound plasmin on HT-1080 cells in serum culture; format: cell-based, human; settings: for Bound plasmin activity (%): 10% serum medium, Plg alone = 100%
HT-1080 cells [2] = test: u-PA activity in medium of HT-1080 cultures (immunocapture assay); format: cell-based; settings: Homo sapiens, control = 100%; for activity at 10 µM: TA 10 μM with Plg 40 μg/ml; for activity at 100 µM: TA 100 μM with Plg 40 μg/ml
Description: S. et al., "Enzyme-linked immunosorbent assay for human urokinase-type plasminogen activators and its proenzyme using a combination of monoclonal and polyclonal antibodies", J. […] S. et al., "Monoclonal antibodies to human 54,000 molecular weight plasminogen activator inhibitor from fibrosarcoma cells--inhibitor neutralization and one-step affinity purification", Thromb. […] The coating solution contained 2.5 μg of IgG per ml of 0.1 M sodium carbonate (pH 9.8). After rinsing, the wells were treated with conditioned medium ([…]) for 2 hours at 23° C., then rinsed again. […] The other half (controls) received 50 μl of rinsing buffer (0.05% Tween 20 in PBS). […] The cultures were incubated for the times shown before assay of cell-bound plasmin.

HT-1080 cells [3] = test: Pro-u-PA index of cell-bound u-PA on HT-1080 cells in serum medium; format: cell-based, human; settings: TA 100 μM with Plg 40 μg/ml and anti-PAI-1 antibody 10 μg/ml, 2 h at 37° C.
Description: Cell culture supernatants were assayed for pro-u-PA and active u-PA by the following modification of an immunocapture method (Stephens et al., 1988; Stephens et al., 1987). Microtitre wells of polystyrene immunoplates (type 269620, A/S Nunc, Roskilde, Denmark) were coated overnight at 37° C. with 50 μl of a solution of goat IgG antibodies to human u-PA (cat. # 398, American Diagnostica). The coating solution contained 2.5 μg of IgG per ml of 0.1 M sodium carbonate (pH 9.8). After rinsing, the wells were treated with conditioned medium ([…]) for 2 hours at 23° C., then rinsed again. […] This mixture was incubated for 30 minutes at 37° C., and the absorbancies of the wells were read at 405 nm. […]
Pro-u-PA and active u-PA bound to the cell layer were recovered for immunocapture assays by the same method as was used in the metabolic labelling (see above). […] For conditioned medium and cell-bound u-PA, the u-PA activity assayed after NPGB treatment was expressed as a percentage of the total activity obtained without NPGB treatment, and this percentage used as an index of pro-u-PA content (pro-u-PA index). […]

plasmin [4] = molecular target: T1, plasmin (Homo sapiens, UniProt P00747); test: Plasmin thioesterase assay (Z-lysine thiobenzyl ester); format: biochemical; settings: tranexamic acid 1 mM
plasmin [5] = molecular target: T1, plasmin; test: Plasmin-catalysed activation of pro-u-PA in solution; format: biochemical; settings: tranexamic acid 100 μM; unpublished results
HT-1080 cells [6] = test: Plasmin binding to and release from HT-1080 cells; format: cell-based, human
Description: Plasmin release from HT-1080 cells into serum-free and serum-containing media. Confluent layers of HT-1080 cells were first loaded with plasmin by incubation for 1 hour at 37° C. in serum-free MEM medium (0.5 ml) containing human plasmin (0-5 μg/ml). After rinsing the cell layers three times, they were incubated for 2 hours at 37° C. with either serum-free medium (.smallcircle.--.smallcircle.), medium containing 10% heat-inactivated and plasminogen-depleted fetal calf serum (.circle-solid.--.circle-solid.), or the latter with tranexamic acid (100 μM) (.box-solid.--.box-solid.). Plasmin was then assayed in the cell-bound fraction (A) and the media (B).
In the Examples concerning plasmin binding to cells from medium, human plasmin (approximately 18 CU/mg; Kabi Diagnostica, Stockholm, Sweden) was added to the cultures at final concentrations of 0-5 μg/ml. The cells were incubated for 3 hours at 37° C. before assay of cell-bound and supernatant plasmin (see below). For plasmin release experiments, cells were loaded for 1 hour at 37° C. with 0-5 μg/ml plasmin in serum-free medium, then rinsed three times with MEM.
Plasmin bound to the cell layer was recovered and assayed as follows. […] Plasmin activity was assayed in eluate samples (50 μl) as above with an incubation time of 3 hours at 37° C.

T1 sequence (P00747 581-810 limits assumed): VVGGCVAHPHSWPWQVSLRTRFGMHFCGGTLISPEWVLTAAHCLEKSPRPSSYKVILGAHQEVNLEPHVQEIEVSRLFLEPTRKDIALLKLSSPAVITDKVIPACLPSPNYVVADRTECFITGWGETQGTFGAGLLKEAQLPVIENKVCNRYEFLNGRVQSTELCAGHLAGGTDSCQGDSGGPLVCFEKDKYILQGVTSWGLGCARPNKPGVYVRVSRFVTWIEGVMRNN
T1 sequence (P00747 97-580 limits assumed): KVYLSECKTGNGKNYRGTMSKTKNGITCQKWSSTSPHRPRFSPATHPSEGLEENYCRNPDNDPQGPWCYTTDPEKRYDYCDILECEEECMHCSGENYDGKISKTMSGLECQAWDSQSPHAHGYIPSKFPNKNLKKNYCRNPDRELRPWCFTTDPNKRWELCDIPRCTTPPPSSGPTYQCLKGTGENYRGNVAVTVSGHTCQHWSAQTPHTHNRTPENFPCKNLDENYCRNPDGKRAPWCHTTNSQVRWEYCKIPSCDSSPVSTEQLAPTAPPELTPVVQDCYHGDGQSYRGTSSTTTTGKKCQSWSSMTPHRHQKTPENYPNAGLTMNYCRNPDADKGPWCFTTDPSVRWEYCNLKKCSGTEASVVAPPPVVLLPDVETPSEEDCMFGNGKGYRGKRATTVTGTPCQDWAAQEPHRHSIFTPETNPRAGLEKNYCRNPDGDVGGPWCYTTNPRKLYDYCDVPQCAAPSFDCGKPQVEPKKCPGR

SMILES | Ability of the u-PA:PAI-1 complex to bind to the U937 cells (U937 cells) | Bound plasmin activity (%) (HT-1080 cells [1]; TA 10 μM with Plg 40 μg/ml, 3 h) | Bound plasmin activity (%) (HT-1080 cells [1]; TA 10 μM with Plg 40 μg/ml, 17 h) | Bound plasmin activity (HT-1080 cells [1]; TA 100 μM with Plg 40 μg/ml and anti-PAI-1 antibody 10 μg/ml, 2 h at 37° C.) [ng] | Bound plasmin activity (%) (HT-1080 cells [1]; TA 100 μM with Plg 40 μg/ml, 3 h) | Bound plasmin activity (%) (HT-1080 cells [1]; TA 100 μM with Plg 40 μg/ml, 17 h) | activity at 10 µM (HT-1080 cells [2]; 3 h) [%] | activity at 10 µM (HT-1080 cells [2]; 17 h) [%] | activity at 100 µM (HT-1080 cells [2]; 3 h) [%] | activity at 100 µM (HT-1080 cells [2]; 17 h) [%] | Pro-u-PA index (%) (HT-1080 cells [3]) | Effect on the thioesterase activity of plasmin (plasmin [4]) | Ability of plasmin to activate pro-u-PA in solution (plasmin [5]) | Plasmin activity recovered from plasmin-loaded cells (HT-1080 cells [6]; 1 mM tranexamic acid in 10% serum medium, 2 h at 37° C.) | Binding of plasmin to the cells (HT-1080 cells [6]; tranexamic acid 100 μM)
CCN(CC)CCCC(C)Nc1ccnc2cc(Cl)ccc12 (stereo not drawn) [chloroquine] | does not affect |  |  |  |  |  |  |  |  |  |  |  |  |  | 
NC[C@H]1CC[C@H](C(=O)O)CC1 [tranexamic acid] |  | 9.7 | 34 | 0 | 2.2 | 13 | 116 | 87 | 92 | 95 | 88 | no effect | does not affect | no plasmin activity could be recovered | completely inhibits
